Holding throughout (format): cell-based
One experiment relates to COLO205 (colon). The experiment in a line: Inhibition of cell proliferation, CellTiter-Glo, COLO205. The note with it: Homo sapiens, COLO 205, 72 h. Put shortly: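 Exponentially growing COLO205 cells in medium with 10% FBS were plated below 2000 cells/well at 37 °C, 5% CO2. Untreated wells served as controls.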
Experiment [1] has as its system NCI-H929 (multiple myeloma). The experiment in a line: Inhibition of cell proliferation, CellTiter-Glo, NCI-H929. The following applies: Homo sapiens, 72 h. In outline:
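Cells were grown in medium with 10% FBS at 37° C, 5% CO2. Cell number was read as CellTiter-Glo luminescence (cellular ATP), with untreated wells as control.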

The target of experiment [2] is T1, human IGF-1R (NIH-3T3 cells over expressing human IGF-1R) (Homo sapiens, UniProt P08069).
T1 construct: expressed in transfected cells; host or cells: NIH-3T3 (mouse fibroblasts)
The experiment in a line: IGF-1R cellular autophosphorylation (DELFIA). The following applies: IGF-1 stimulated. In outline:
(§1)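 Readout: DELFIA on lysates, with anti-IGF-1R or anti-IR capture and europium anti-pTyr detection, expressed relative to 100% ligand-stimulated signal. Human IGF-1R- or IR-overexpressing NIH-3T3 cells got compound (1.5 nM–30 uM) for 2 h before 15 min IGF-1 (30 ng/mL) or insulin (3 ug/mL).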

The target of experiment [3] is T2, IR (NIH-3T3 cells over expressing human IGF-1R or IR) (Homo sapiens, UniProt P06213).
T2 construct: expressed in transfected cells; host or cells: NIH-3T3 (mouse fibroblasts)
The experiment in a line: IR cellular autophosphorylation (DELFIA). The note with it: NIH-3T3 cells over expressing IR, insulin stimulated. Put shortly: as §1

Where only a bound is given, the exact number is not on record here.

T1 sequence (P08069 31-1367): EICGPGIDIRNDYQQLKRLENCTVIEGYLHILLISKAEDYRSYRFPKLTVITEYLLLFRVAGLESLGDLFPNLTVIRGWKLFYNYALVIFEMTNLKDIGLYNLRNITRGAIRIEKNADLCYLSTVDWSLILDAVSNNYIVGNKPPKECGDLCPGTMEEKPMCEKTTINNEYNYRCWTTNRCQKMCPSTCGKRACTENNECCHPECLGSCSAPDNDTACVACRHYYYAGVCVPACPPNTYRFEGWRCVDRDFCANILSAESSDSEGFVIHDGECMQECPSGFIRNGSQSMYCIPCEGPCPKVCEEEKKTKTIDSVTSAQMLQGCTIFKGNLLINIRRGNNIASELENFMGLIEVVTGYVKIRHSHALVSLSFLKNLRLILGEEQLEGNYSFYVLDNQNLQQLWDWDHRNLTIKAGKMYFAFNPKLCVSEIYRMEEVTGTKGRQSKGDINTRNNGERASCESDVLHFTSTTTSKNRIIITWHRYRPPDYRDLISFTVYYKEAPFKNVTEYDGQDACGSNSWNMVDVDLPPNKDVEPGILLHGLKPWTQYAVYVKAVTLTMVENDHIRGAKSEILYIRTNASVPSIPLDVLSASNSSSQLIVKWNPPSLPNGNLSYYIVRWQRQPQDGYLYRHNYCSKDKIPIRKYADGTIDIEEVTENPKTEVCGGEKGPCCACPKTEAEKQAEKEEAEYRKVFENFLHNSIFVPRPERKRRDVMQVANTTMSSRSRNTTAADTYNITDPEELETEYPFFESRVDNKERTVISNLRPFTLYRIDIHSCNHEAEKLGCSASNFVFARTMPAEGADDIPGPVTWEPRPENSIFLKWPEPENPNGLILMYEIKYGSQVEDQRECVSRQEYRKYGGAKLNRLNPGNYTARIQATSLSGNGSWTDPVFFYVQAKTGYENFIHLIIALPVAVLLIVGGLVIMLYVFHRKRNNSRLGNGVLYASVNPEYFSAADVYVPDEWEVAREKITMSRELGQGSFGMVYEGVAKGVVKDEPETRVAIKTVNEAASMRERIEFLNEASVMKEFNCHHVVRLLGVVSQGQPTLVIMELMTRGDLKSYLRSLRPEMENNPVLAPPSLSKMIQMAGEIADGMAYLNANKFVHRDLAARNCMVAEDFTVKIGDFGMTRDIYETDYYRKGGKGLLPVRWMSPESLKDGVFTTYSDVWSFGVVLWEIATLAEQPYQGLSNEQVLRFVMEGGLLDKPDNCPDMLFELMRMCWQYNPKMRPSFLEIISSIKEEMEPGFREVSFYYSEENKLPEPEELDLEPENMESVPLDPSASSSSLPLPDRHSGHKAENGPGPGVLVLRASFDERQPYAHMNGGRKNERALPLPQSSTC
T2 sequence (P06213 28-1382): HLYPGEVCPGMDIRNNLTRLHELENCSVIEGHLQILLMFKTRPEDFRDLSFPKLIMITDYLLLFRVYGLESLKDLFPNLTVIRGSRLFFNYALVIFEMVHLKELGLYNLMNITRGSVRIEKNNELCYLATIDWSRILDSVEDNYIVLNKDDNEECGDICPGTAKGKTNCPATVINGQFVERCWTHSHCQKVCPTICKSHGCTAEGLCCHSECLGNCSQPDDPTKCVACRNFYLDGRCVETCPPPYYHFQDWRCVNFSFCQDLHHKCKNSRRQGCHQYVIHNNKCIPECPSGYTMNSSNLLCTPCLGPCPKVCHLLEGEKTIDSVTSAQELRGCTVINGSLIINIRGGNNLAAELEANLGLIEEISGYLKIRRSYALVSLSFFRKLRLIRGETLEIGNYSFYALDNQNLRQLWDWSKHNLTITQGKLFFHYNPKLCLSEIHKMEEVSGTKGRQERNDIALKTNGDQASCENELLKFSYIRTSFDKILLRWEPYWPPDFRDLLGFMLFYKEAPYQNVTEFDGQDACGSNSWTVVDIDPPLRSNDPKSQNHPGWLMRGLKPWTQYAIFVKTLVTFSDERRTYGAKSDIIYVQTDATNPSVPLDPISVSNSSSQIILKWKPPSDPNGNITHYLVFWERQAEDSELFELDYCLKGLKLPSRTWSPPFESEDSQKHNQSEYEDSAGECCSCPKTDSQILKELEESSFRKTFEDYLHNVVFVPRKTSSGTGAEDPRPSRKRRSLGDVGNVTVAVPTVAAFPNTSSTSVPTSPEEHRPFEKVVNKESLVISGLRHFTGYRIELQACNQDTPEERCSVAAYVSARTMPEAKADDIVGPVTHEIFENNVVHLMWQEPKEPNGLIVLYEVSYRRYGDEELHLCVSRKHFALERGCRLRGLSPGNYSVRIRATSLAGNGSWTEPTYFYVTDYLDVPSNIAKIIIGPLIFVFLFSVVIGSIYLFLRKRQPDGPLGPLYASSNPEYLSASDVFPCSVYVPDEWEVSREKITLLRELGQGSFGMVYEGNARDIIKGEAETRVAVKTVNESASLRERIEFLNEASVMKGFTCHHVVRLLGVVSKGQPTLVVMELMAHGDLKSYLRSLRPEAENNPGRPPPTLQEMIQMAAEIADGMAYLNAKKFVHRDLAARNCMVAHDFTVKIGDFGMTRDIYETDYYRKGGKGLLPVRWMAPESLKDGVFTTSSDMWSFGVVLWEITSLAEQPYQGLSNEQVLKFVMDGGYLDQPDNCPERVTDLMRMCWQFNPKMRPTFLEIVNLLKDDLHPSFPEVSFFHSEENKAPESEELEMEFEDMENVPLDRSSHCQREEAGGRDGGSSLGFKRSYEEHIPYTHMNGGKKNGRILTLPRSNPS

On to `COc1cc(N2CCC(N3CCN(CCS(C)(=O)=O)CC3)CC2)ccc1Nc1nccc(-c2c(-c3cccc(C(=O)Nc4c(F)cccc4F)c3)nc3ccccn23)n1` [Example 59, N-(2,6-difluorophenyl)-3-[3-(2-{[2-(methyloxy)-4-(4-{4-[2-(methylsulfonyl)ethyl]-1-piperazinyl}-1-piperidinyl)phenyl]amino}-4-pyrimidinyl)imidazo[1,2-a]pyridin-2-yl]benzamide], for which the IC50 in the experiment on COLO205 (colon) was 250 to 1000 nM; in experiment [1], below 250 nM; in experiment [2], below 100 nM; in experiment [3], below 100 nM.

Turning to `COCCN1CCN(c2cc(OC)c(Nc3nccc(-c4c(-c5cccc(C(=O)Nc6c(F)cccc6F)c5)nc5ccccn45)n3)cc2C)CC1` [Example 243, N-(2,6-difluorophenyl)-3-(3-{2-[(5-methyl-2-(methyloxy)-4-{4-[2-(methyloxy)ethyl]-1-piperazinyl}phenyl)amino]-4-pyrimidinyl}imidazo[1,2-a]pyridin-2-yl)benzamide], the concentration for half-maximal inhibition (IC50) was 250 to 1000 nM in the experiment with COLO205 (colon), below 250 nM in experiment [1], below 100 nM in experiment [2] and below 100 nM in experiment [3].

Take `COc1cc(N2CCC(N3CCN(S(C)(=O)=O)CC3)CC2)ccc1Nc1nccc(-c2c(-c3ccc(OC)c(C(=O)Nc4c(F)cccc4F)c3)nc3cc(F)ccn23)n1` [Example 199, N-(2,6-difluorophenyl)-5-(7-fluoro-3-{2-[(2-(methyloxy)-4-{4-[4-(methylsulfonyl)-1-piperazinyl]-1-piperidinyl}phenyl)amino]-4-pyrimidinyl}imidazo[1,2-a]pyridin-2-yl)-2-(methyloxy)benzamide]: the IC50 was 250 to 1000 nM in the experiment on COLO205 (colon), below 250 nM in experiment [1], below 100 nM in experiment [2] and below 100 nM in experiment [3].

`COc1cc(N2CCC(N3CCC(C(F)(F)F)CC3)CC2)ccc1Nc1nccc(-c2c(-c3cccc(C(=O)Nc4c(F)cccc4F)c3)nc3ccccn23)n1` [Example 52, N-(2,6-difluorophenyl)-3-{3-[2-({2-(methyloxy)-4-[4-(trifluoromethyl)-1,4′-bipiperidin-1′-yl]phenyl}amino)-4-pyrimidinyl]imidazo[1,2-a]pyridin-2-yl}benzamide]: the IC50 was 250 to 1000 nM with COLO205 (colon), 250 to 1000 nM in experiment [1], below 100 nM in experiment [2] and 100 to 500 nM in experiment [3].

As to `COc1cc(N2CCC(N3CCN(S(C)(=O)=O)CC3)CC2)ccc1Nc1nccc(-c2c(-c3cccc(C(=O)Nc4c(F)cccc4F)c3)nc3c(C)cccn23)n1` [Example 68, N-(2,6-difluorophenyl)-3-(8-methyl-3-{2-[(2-(methyloxy)-4-{4-[4-(methylsulfonyl)-1-piperazinyl]-1-piperidinyl}phenyl)amino]-4-pyrimidinyl}imidazo[1,2-a]pyridin-2-yl)benzamide], the IC50 in the experiment on COLO205 (colon) fell in the range of 250 to 1000 nM; in experiment [1], 250 to 1000 nM; in experiment [2], 100 to 500 nM; in experiment [3] it was 100 to 500 nM.

In the case of `CCCc1cc(C2CCN(CCS(C)(=O)=O)CC2)ccc1Nc1nccc(-c2c(-c3ccc(OCC)c(C(=O)Nc4c(F)cccc4F)c3)nc3ccccn23)n1` [Example 168, N-(2,6-difluorophenyl)-2-(ethyloxy)-5-(3-{2-[(4-{1-[2-(methylsulfonyl)ethyl]-4-piperidinyl}-2-propylphenyl)amino]-4-pyrimidinyl}imidazo[1,2-a]pyridin-2-yl)benzamide], the IC50 in the experiment with COLO205 (colon) is 250 to 1000 nM; in experiment [1], below 250 nM; in experiment [2] it was below 100 nM; in experiment [3] it was below 100 nM.

Regarding `COc1cc(N2CCC(N3CCCN(C)CC3)CC2)ccc1Nc1nccc(-c2c(-c3cccc(C(=O)Nc4c(F)cccc4F)c3)nc3ccccn23)n1` [Example 48, N-(2,6-difluorophenyl)-3-[3-(2-{[4-[4-(4-methylhexahydro-1H-1,4-diazepin-1-yl)-1-piperidinyl}-2-(methyloxy)phenyl]amino}-4-pyrimidinyl)imidazo[1,2-a]pyridin-2-yl]benzamide], the IC50 was 250 to 1000 nM in the experiment with COLO205 (colon), 250 to 1000 nM in experiment [1], below 100 nM in experiment [2] and 100 to 500 nM in experiment [3].

Regarding `COc1cc(N2CCN3CCOC[C@@H]3C2)ccc1Nc1nccc(-c2c(-c3cccc(C(=O)Nc4c(F)cccc4F)c3)nc3ccccn23)n1` [Example 123], the IC50 in the experiment on COLO205 (colon) was 250 to 1000 nM; in experiment [1] it was 250 to 1000 nM; in experiment [2], 100 to 500 nM; in experiment [3], below 100 nM.

`COCCN(CCOC)C1CCN(c2ccc(Nc3nccc(-c4c(-c5cccc(C(=O)Nc6c(F)cccc6F)c5)nc5ccccn45)n3)c(OC)c2)CC1` [Example 49, 3-[3-(2-{[4-(4-{bis[2-(methyloxy)ethyl]amino}-1-piperidinyl)-2-(methyloxy)phenyl]amino}-4-pyrimidinyl)imidazo[1,2-a]pyridin-2-yl]-N-(2,6-difluorophenyl)benzamide]: the IC50 in the experiment on COLO205 (colon) was 250 to 1000 nM; in experiment [1] it was 250 to 1000 nM; in experiment [2], 100 to 500 nM; in experiment [3] it was below 100 nM.

Turning to `CCCc1cc(C2CCN(CCS(C)(=O)=O)CC2)ccc1Nc1nccc(-c2c(-c3ccc(OC)c(C(=O)Nc4c(F)cccc4F)c3)nc3ccccn23)n1` [Example 167, N-(2,6-difluorophenyl)-2-(methyloxy)-5-(3-{2-[(4-{1-[2-(methylsulfonyl)ethyl]-4-piperidinyl}-2-propylphenyl)amino]-4-pyrimidinyl}imidazo[1,2-a]pyridin-2-yl)benzamide], the half-maximal inhibitory concentration (IC50) was above 1000 nM in the experiment with COLO205 (colon), above 1000 nM in experiment [1], below 100 nM in experiment [2] and below 100 nM in experiment [3].

Consider `COc1cc(C2CCN(CC(C)C)CC2)ccc1Nc1nccc(-c2c(-c3ccc(OC)c(C(=O)Nc4c(F)cccc4F)c3)nc3ccccn23)n1` [Example 160, N-(2,6-difluorophenyl)-2-(methyloxy)-5-{3-[2-({2-(methyloxy)-4-[1-(2-methylpropyl)-4-piperidinyl]phenyl}amino)-4-pyrimidinyl]imidazo[1,2-a]pyridin-2-yl}benzamide], for which the IC50 was 250 to 1000 nM in the experiment with COLO205 (colon), below 250 nM in experiment [1], below 100 nM in experiment [2] and below 100 nM in experiment [3].

On to `CCCN1CCC(c2ccc(Nc3nccc(-c4c(-c5cccc(C(=O)Nc6c(F)cccc6F)c5)nc5ccccn45)n3)c(OCC)c2)CC1` [Example 155, N-(2,6-difluorophenyl)-3-[3-(2-{[2-(ethyloxy)-4-(1-propyl-4-piperidinyl)phenyl]amino}-4-pyrimidinyl)imidazo[1,2-a]pyridin-2-yl]benzamide], for which the concentration for half-maximal inhibition (IC50) in the experiment on COLO205 (colon) was 250 to 1000 nM; in experiment [1], below 250 nM; in experiment [2], below 100 nM; in experiment [3], below 100 nM.

Turning to `COc1cc(N2CCC(CCS(C)(=O)=O)CC2)c(C)cc1Nc1nccc(-c2c(-c3ccc(OC)c(C(=O)Nc4c(F)cccc4F)c3)nc3ccccn23)n1` [Example 230, N-(2,6-difluorophenyl)-5-(3-{2-[(5-methyl-2-(methyloxy)-4-{4-[2-(methylsulfonyl)ethyl]-1-piperidinyl}phenyl)amino]-4-pyrimidinyl}imidazo[1,2-a]pyridin-2-yl)-2-(methyloxy)benzamide], the IC50 with COLO205 (colon) was below 250 nM; in experiment [1], below 250 nM; in experiment [2], below 100 nM; in experiment [3] it was below 100 nM.

In the case of `COc1cc(N2CCC(N3CCN(CCF)CC3)CC2)ccc1Nc1nccc(-c2c(-c3cccc(C(=O)Nc4c(F)cccc4F)c3)nc3c(C)cccn23)n1` [Example 60, N-(2,6-difluorophenyl)-3-[3-(2-{[4-{4-[4-(2-fluoroethyl)-1-piperazinyl]-1-piperidinyl}-2-(methyloxy)phenyl]amino}-4-pyrimidinyl)-8-methylimidazo[1,2-a]pyridin-2-yl]benzamide], the IC50 in the experiment on COLO205 (colon) is 250 to 1000 nM; in experiment [1], 250 to 1000 nM; in experiment [2], below 100 nM; in experiment [3], below 100 nM.

`CCOc1ccc(-c2nc3ccccn3c2-c2ccnc(Nc3ccc(N4CCC(N5CCN(S(C)(=O)=O)CC5)CC4)cc3OC)n2)cc1C(=O)Nc1c(F)cccc1F` [Example 228, N-(2,6-difluorophenyl)-2-(ethyloxy)-5-(3-{2-[(2-(methyloxy)-4-{4-[4-(methylsulfonyl)-1-piperazinyl]-1-piperidinyl}phenyl)amino]-4-pyrimidinyl}imidazo[1,2-a]pyridin-2-yl)benzamide]: the IC50 in the experiment with COLO205 (colon) is below 250 nM; in experiment [1], below 250 nM; in experiment [2] it was below 100 nM; in experiment [3], below 100 nM.
